Reference: patent US8828724B2, “Method for preparing cells for engraftment” (Institut National de la Sante et de la Recherche Medicale …, priority 2007, dated 2014)
Peptide text beside a SMILES is read from it.

Assays:
BM-MNC [1] = assay: Apoptosis evaluation via observation of nuclear morphology; assay type: cell-based, mouse; settings: 100 μM, pre-treated or continued presence, 5 days of culture, FIG. 13
Method: BM-MNC were grown onto gelatin/vitronectin matrix for 5 days in EBM in the continued presence of TSP1 or the 4N1-1 and 4N1-2 peptides, or treated for the last 24 h only. […] Non adherent cells were eliminated and adherent cells fixed with PBS-PFA 4% followed by addition of DAPI (Di-aminidophenylindol, 0.01 mg/ml) that becomes fluorescent after integration between DNA bases. […] Experiments were repeated at least three times.
After observing increased BM-MNC adhesion following treatment with peptide 4N1-1, the inventors examined the extent of apoptosis triggered by peptide 4N1-1.

BM-MNC [2] = assay: Apoptosis evaluation via quantification of intact DNA content; assay type: cell-based; settings: 50 μM for 10 or 120 min, culture up to 24 hours, FIG. 29
Method: BM-MNC were isolated and treated with 4N1-1 peptide for 10 or 120 min, washed with PBS and cultured in EBM onto gelatin/vitronectin matrix for up to 24 hours. Untreated fresh cells served as control for live cells. […] After treatment and culture, non adherent and adherent cells were harvested and analyzed separately, fixed with ice-cold ethanol 70% in PBS, and incubated for 45 min in PBS containing Triton X-100 (0.05%), propidium iodide (PI; 50 μg/ml) and RNase-A (100 μg/ml). PI becomes fluorescent after integration between DNA bases. […] Experiments were repeated three times.
The inventors examined the extent of apoptosis in BM-MNC treated with peptide 4N1-1 and 4N1-2, using a second method. BM-MNC were pre-treated with 4N1-1 or 4N1-2 (50 μM) for 10 or 120 min, and cultured in full EBM2 medium, with serum and growth factors for up to 24 hours, to allow potential apoptotic reactions to proceed (FIG. 29). […] After culture, adherent and non-adherent cells were harvested and analyzed separately.

BM-MNC [3] = assay: BM-MNC adhesion onto gelatin/vitronectin or fibrin gels for 30 min after pre-treatment; assay type: cell-based, mouse; settings: 2 h pre-treatment
Method: Tibias, femurs and humerus of C57BL/6 male mice were carefully dissected, bone marrow was extracted and dissociated, and bone marrow mononuclear cells (BM-MNC) were separated by differential centrifugation on Ficoll gradients (Histopaque-1083, Sigma), (2,000 r.p.m, 25 min). BM-MNC were then washed with PBS and pelleted (2,000 r.p.m, 10 min).
(§1) To evaluate the effects of TSP1 or peptides derived from its carboxyterminal sequence, 4N1-1 and 4N1-2, on cell adhesion onto gelatin/vitronectin, fibrin gels or activated SVEC monolayers, 2.10^6/ml BM-MNC or PBMC, or 10^6/ml HUCB-EPC were pretreated for 2 h at 37° C. in an incubator with 5% CO2, in the presence of TSP1 ([…]), or the 4N1-1 or 4N1-2 peptides (100 μM), or control BSA (1%), or with mouse monoclonal anti-human CD47 IgG1 B6H12 (40 μg/ml), or matched control isotype mouse IgG1 (40 μg/ml), before PBS washes and culture for the specified length of time. For adhesion experiments, supernatants were removed, adherent cells were gently washed with PBS. The number of adherent cells per high power field was counted in 3 to 5 fields per well using an inverted phase-contrast microscope at high magnification (×400).
(§2) Mouse BM-MNC and HUCB-EPC adhesion was evaluated in vitro. The effects of purified or recombinant platelet proteins, or peptide agonists of the CD47/IAP receptor was characterized. Two main approaches were used: • 1. Pre-incubation of the cells with platelet proteins for 2 h before measuring their adhesion on gelatin/vitronectin control matrix or fibrin gels for 30 min. • 2. Cell adhesion on gelatin/vitronectin control matrix or fibrin gels for 16 h in the presence of platelet proteins in solution.

[4] = systemic injection of significant doses; cited from earlier work
HUCB-EPC = HUCB-EPC adhesion onto gelatin/vitronectin or fibrin gels for 15 min after pre-treatment; assay type: cell-based, Human; settings: 2 h pre-treatment, 15 min adhesion, FIG. 8
Method: Human umbilical cord blood (30-50 ml) was collected in sterile tubes containing heparin (15 UI/ml, Sanofi) following standard protocols in agreement with Hôpital Lariboisiére and Inserm ethical guidelines. PBMC were isolated via Ficoll gradient centrifugation (Histopaque-1077, Dominique Dutscher). To eliminate mature endothelial cells, mononuclear cells were seeded (6.10^6 cells/ml) in culture dishes (100×20 mm) at 37° C. with 5% CO2 for 16 h. Adherent cells were eliminated. Non-adherent cells were cultured and differentiated into Human umbilical cord blood-derived endothelial progenitor cells (HUCB-EPC) in 6-well plates (10^7 cells/well) on collagen type 1 matrix (Coll1; 90 μg/ml, Sigma) in M199 growth medium (Gibco) complete with L-glutamine, HEPES buffer (25 mM; Eurobio), antibiotics and antimycotics (penicillin 10000 units/ml, streptomycin 10,000 μg/ml, fongizone 25 μg/ml) and 20% FCS (Dominique Dutscher), as well as 10 ng/ml VEGF (R&D Systems).
as §1

BM-MNC [5] = assay: BM-MNC adhesion onto interleukin-1β-pre-activated murine endothelial monolayers; assay type: cell-based, mouse; settings: 2 h pre-treatment; TSP1 10 μg/ml, 4N1-1 100 μM; 30 min adhesion, FIG. 9
Method: SV40-transformed mouse lymph node endothelial cells (SVEC from ATCC), were grown in Dulbecco's Modified Eagle Medium (DMEM) supplemented with 20% FCS in 24 well plaques until they reached full confluency (7 days). SVEC monolayers were activated with 5 nM murine interleukin-1β (Calbiochem) for 2 h prior to cell-cell adhesion experiments.
as §1
BM-MNC were pre-treated for 2 h with recombinant or purified human TSP1 (10 μg/ml), or with peptide 4N1-1 (100 μM), and measured their adhesion after 30 min onto interleukin-1β-pre-activated murine endothelial monolayers. […]

BM-MNC [6] = assay: Endothelial differentiation of BM-MNC (Dil-Ac-LDL / BS1-lectin double labelling); assay type: cell-based, mouse; settings: 2 h pre-treatment, 5 days culture, FIG. 12
Method: BM-MNC were cultured onto gelatin/vitronectin in EBM medium for 5 days. After eliminating non adherent cells, EPC were identified through double-labelling for two endothelial characteristics: incorporation of Dil-labelled acetylated low density lipoproteins (Dil-Ac-LDL; 1 μg/ml, BioHarbor Products; red fluorescence) and binding of FITC-labelled BS1-lectin (1 μg/ml, Sigma; green fluorescence). Double fluorescence allowed the microscopic identification and counting of EPC in 3 to 5 fields per well (400× magnification). Experiments were repeated at least three times, and results expressed as percentages of EPC.
Following the previous observation that TSP1 and peptide 4N1-1 stimulate BM-MNC adhesion in vitro, the inventors measured the endothelial differentiation of treated BM-MNC. BM-MNC were cultured for 5 days, following a 2 h pre-treatment with recombinant or purified TSP1, or with peptides 4N1-1, 4N1-2, or CSVTCG (a peptide derived from the TSP1 sequence). EPC-differentiated BM-MNC were identified by fluorescence microscopy after double-labelling for Dil-Ac-LDL incorporation and BS1 lectin binding.

BM-MNC [7] = assay: BM-MNC adhesion onto gelatin/vitronectin for 16 h with proteins in solution; assay type: cell-based, mouse; settings: 16 h in presence of 100 μg/ml, FIG. 3
Method: as §2
BM-MNC were incubated for 16 h on gelatin/vitronectin matrix in the presence of PPP, recombinant TSP1 (100 μg/ml), or peptide 4N1-1 (100 μM) before adhesion was quantified through direct cell counts by phase-contrast microscopy. As reported in FIG. 3, TSP1 stimulated adhesion by over three fold compared to the gelatin/vitronectin control (+206.8%, p<0.05).

[8] = 30 min adhesion, gelatin/vitronectin, FIG. 26
[9] = BM-MNC, 30 min adhesion, FIG. 1

CSCC[C@H](NC(=O)[C@@H](NC(=O)[C@@H](NC(=O)[C@H](Cc1ccc(O)cc1)NC(=O)[C@H](Cc1ccccc1)NC(=O)[C@@H](N)CCCNC(=N)N)C(C)C)C(C)C)C(=O)N[C@@H](Cc1c[nH]c2ccccc12)C(=O)N[C@@H](CCCCN)C(=O)O [4N1-1]
apoptosis compared to BSA (BM-MNC [1]): did not stimulate apoptosis significantly

CSCC[C@H](NC(=O)[C@@H](NC(=O)[C@@H](NC(=O)[C@H](Cc1ccc(O)cc1)NC(=O)[C@H](Cc1ccccc1)NC(=O)[C@@H](N)CCCNC(=N)N)C(C)C)C(C)C)C(=O)O [4N1-2, RFYVVM, reference compound] (H-RFYVVM-OH)
apoptosis compared to BSA (BM-MNC [1]): did not stimulate apoptosis significantly
apoptosis compared to staurosporine or control, adherent and non-adherent cells (BM-MNC [2]): did not stimulate apoptosis significantly

CSVTCG (TSP-1 fragment) [reference compound]
inhibition of adhesion compared with BSA (BM-MNC [3]; 30 min adhesion, gelatin/vitronectin, FIG. 7): 21%

FIRGGMYEGKK (7NGG) [mutated 7N3, reference compound]
modulation of BM-MNC adhesion compared with BSA (BM-MNC [3]; [8]): no significant modulation

FIRVVMYEGKK (7N3 peptide)
modulation of BM-MNC adhesion compared with BSA (BM-MNC [3]; [8]): stimulated BM-MNC adhesion significantly

KRFYVVMWKK (4N1K peptide)
gross coagulation parameters [4]: does not modulate gross coagulation parameters
lethality [4]: not lethal

RFYGGMWK (4NGG) [mutated 4N1-1, reference compound]
modulation of BM-MNC adhesion compared with BSA (BM-MNC [3]; [8]): no significant modulation

TSP1: recombinant or purified Thrombospondin-1, not specified which at b144
stimulation of adhesion on fibrin compared with BSA (BM-MNC [3]; [9]): +74.0%
stimulation of adhesion onto gelatin/vitronectin compared with BSA (BM-MNC [3]; [9]): +160.6%

leptin: recombinant human leptin (Biovision)
modulation of BM-MNC adhesion compared with BSA (BM-MNC [3]; SDF1 100 ng/ml, EphB2-Fc 3 μg/ml, EBM2 50%, leptin 100 ng/ml, gelatin/vitronectin 30 min, FIG. 27): moderate increase

purified TSP1: Human purified Thrombospondin-1 prepared at Inserm Unit U553
stimulation of HUCB-EPC adhesion onto fibrin compared with BSA (HUCB-EPC): +33.3%
stimulation of HUCB-EPC adhesion onto gelatin-vitronectin compared with BSA (HUCB-EPC): +52.5%
stimulation of adhesion onto endothelial monolayers compared with BSA (BM-MNC [5]): +40.5%
stimulation of BM-MNC adhesion onto gelatin/vitronectin compared with BSA (BM-MNC [3]; 30 min adhesion, FIG. 7): +143.8%
stimulation of endothelial differentiation vs BSA (BM-MNC [6]): +28.9%

recombinant TSP1: Human recombinant Thrombospondin-1 produced by EMP-Genetech
stimulation of HUCB-EPC adhesion onto fibrin compared with BSA (HUCB-EPC): +37.6%
stimulation of HUCB-EPC adhesion onto gelatin-vitronectin compared with BSA (HUCB-EPC): +106.3%
stimulation of adhesion compared to the gelatin/vitronectin control (BM-MNC [7]): +206.8%
stimulation of adhesion onto endothelial monolayers compared with BSA (BM-MNC [5]): +34.2%
concentration at which maximal stimulation of adhesion was reached (BM-MNC [3]; 30 min adhesion, FIG. 2): 20 µg/mL
concentration from which adhesion onto gelatin/vitronectin was stimulated significantly (BM-MNC [3]; 30 min adhesion, FIG. 2): ≥ 5 µg/mL
stimulation of BM-MNC adhesion onto gelatin/vitronectin compared with BSA (BM-MNC [3]; 30 min adhesion, FIG. 7): +65.6%
maximal stimulation of adhesion onto gelatin/vitronectin compared with BSA (BM-MNC [3]; at 20 μg/ml, FIG. 2): +179.3%
stimulation of endothelial differentiation vs BSA (BM-MNC [6]): +28.0%
